Values of other authors in patent US12582603B2 (NTC S.r.l., priority 2017, dated 2026).

Settings: at a pH of 6.4

Q: With `Brc1c(N=C2NCCN2)ccc2nccnc12.O=C(O)C(O)C(O)C(=O)O` [Brimonidine, 5-Bromo-6-(2-imidazolidinylideneamino)quinoxaline L-tartrate] as the compound, how does the Fraction ionized read?
A: about 90%
